Source: BigSolDB 2.1

Conditions: in water

solubility (mole fraction) (298.15 K)	solubility (mole fraction) (303.15 K)	solubility (mole fraction) (308.15 K)	solubility (mole fraction) (313.15 K)	solubility (mole fraction) (318.15 K)	solubility (mole fraction) (323.15 K)	solubility (mole fraction) (328.15 K)	solubility (mole fraction) (333.15 K)	SMILES
4.82e-06	6.2e-06	8.23e-06	1.05e-05	1.33e-05	1.7e-05	2.1e-05	2.62e-05	Nc1ccc(S(=O)(=O)Nc2ncccn2)cc1
3.88e-06	4.9e-06	6.13e-06	7.65e-06	9.63e-06	1.17e-05	1.45e-05	1.76e-05	COc1cc(NS(=O)(=O)c2ccc(N)cc2)ncn1
5.52e-06	7.19e-06	9.26e-06	1.17e-05	1.48e-05	1.88e-05	2.34e-05	2.92e-05	COc1cnc(NS(=O)(=O)c2ccc(N)cc2)nc1
1.12e-05	1.35e-05	1.59e-05	1.91e-05	2.3e-05	2.75e-05	3.28e-05	3.91e-05	Nc1ccc(S(=O)(=O)[N-]c2cncc(Cl)n2)cc1.[Na+]
3.07e-06	3.83e-06	4.78e-06	5.83e-06	7.25e-06	8.76e-06	1.05e-05	1.28e-05	COc1cc(NS(=O)(=O)c2ccc(N)cc2)nc(OC)n1
